Results from publication PMC7395068, “The evolution of strategies to minimise the risk of human drug-induced liver injury (DILI) in drug discovery and development” (Archives of Toxicology, 2020).
Where two headings read alike, the source gives them in different places.

Experiments:
[1] = Plasma free fraction (fu) and unbound Cmax (Cmax,u); type: in vitro ADME, human; conditions: unbound plasma Cmax
Description: The prediction of DILI severity was evaluated further using the 3D combined HCI assays using plasma-free fraction. The majority of fu values were obtained from literature, when unavailable in-house prediction was utilised. Unbound plasma Cmax concentrations (Cmax,u) were derived by multiplying total plasma Cmax with the corresponding free fraction (fu) for each compound.

[2] = cited from earlier work; for DILI severity category (Chen 2016): human DILI classification, LTKB DILIrank
[3] = tested on: primary human hepatocytes, NIH3T3 fibroblasts, BSEP, CYP3A4; conditions: cited from earlier work
HepG2 cells [4] = conditions: cited from earlier work
HepG2 cells [5] = conditions: cited from earlier work; remark: listed apart in the source
human hepatocytes = conditions: cited from earlier work
PHH = conditions: cited from earlier work
hLiMTs [6] = conditions: cited from earlier work
[7] = tested on: HepG2 C3A spheroid, BSEP, Glu/Gal in HepG2 cells, bioactivation; conditions: cited from earlier work
[8] = read-out: Human plasma Cmax; total plasma Cmax.tot, median of 9 literature references; cited from earlier work
[9] = plasma free fraction; cited from earlier work
[10] = cited from earlier work
[11] = tested on: THLE-Null and THLE-3A4 cells; conditions: In vitro Assay; ref Gustafsson 2014; cited from earlier work
[12] = tested on: HepG2 cells, primary human hepatocytes; conditions: In vitro Assay; ref Garside 2014; cited from earlier work
[13] = ref Chen 2011; cited from earlier work
rBsep = conditions: In vitro Assay; ref Dawson 2012; cited from earlier work
hLiMTs [14] = experiment: Combined HCI (HCS) and cellular ATP 3D assay in hLiMTs; conditions: for AC50 / minimal effective concentration: Homo sapiens
HepaRG spheroids = experiment: Combined HCI (HCS) and cellular ATP 3D assay in HepaRG spheroids; conditions: for AC50 / minimal effective concentration: Homo sapiens
[15] = In vitro Assay, ref Schadt 2015
[16] = In vitro Assay, ref Persson 2013
[17] = In vitro Assay, ref Proctor 2017
[18] = Microtissue model structural based (HCI), combined HCS and ATP, MEC < 25 × Cmax.tot cut-off

SMILES: CCc1ccc(CCOc2ccc(CC3SC(=O)NC3=O)cc2)nc1 (stereo not shown) [pioglitazone, reference compound]
- Human plasma Cmax,u [1]: 29 nM
- DILI severity category (Chen et al. [2016]) ([2]; LTKB DILIrank category, ref Chen et al. 2016): Less
- DILI severity category (Chen 2016) ([2]; ref Chen et al. 2016): Less
- DILI severity category (Chen 2016) ([2]; ref Chen et al. 2016, listed as Pioglitazone): Less DILI severity
- DILI severity category ([2]; human DILI severity, ref Chen et al.): Less
- DILI +VE (5-8), DILI -VE (-4) ([2]; ref Chen 2016): +VE
- DILI severity category ([2]; ref Chen 2016): vLess-DILI-Concern
- DILI in vitro assay prediction, Schadt (2015) ([3]; BSEP & Metabolism based, ref Schadt et al. 2015): +VE
- Cellular toxicity (3T3 cells) [3, 15]: -VE
- Combined Assay [3, 15]: +VE
- GSH adduct HML [3, 15]: -VE
- Hepatocyte cellular toxicity [3, 15]: +VE
- MitoTox 3T3 [3, 15]: -VE
- TDI CYP3A4 [3, 15]: -VE
- hBSEP inhibition [3, 15]: +VE
- Structural based (HCI) (HepG2 cells [4]; In vitro Assay, ref O'Brien 2006): +VE
- DILI in vitro assay prediction, O'Brien (2006) (HepG2 cells [4]; Structural based (HCI), HepG2, ref O'Brien et al. 2006): -VE
- Cluser analysis (HepG2 cells [5]; [16]): -VE
- Structural based (HCI) (HepG2 cells [5]; [16]): +VE
- DILI in vitro assay prediction, Persson (2013) (HepG2 cells [5]; Structural based (HCI), HepG2, ref Persson et al. 2013): -VE
- Structural based (HCI) (human hepatocytes; In vitro Assay, ref Xu 2008): -VE
- DILI in vitro assay prediction, Xu (2008) (human hepatocytes; Structural based (HCI), human hepatocytes, ref Xu et al. 2008): -VE
- PHH/100xCmax, Proctor (2017) (PHH; 2D PHH, ATP, IC50 < 100 × Cmax.tot, ref Proctor et al. 2017): -VE
- PHH/100uM, Proctor (2017) (PHH; 2D PHH, ATP, IC50 threshold 100 µM, ref Proctor et al. 2017): -VE
- PHH ATP <100uM (PHH; [17]): -VE
- hLiMTs ATP <100uM (hLiMTs [6]; [17]): -VE
- hLiMTs/100xCmax, Proctor (2017) (hLiMTs [6]; hLiMTs, ATP, IC50 < 100 × Cmax.tot, ref Proctor et al. 2017): -VE
- hLiMTs/100uM, Proctor (2017) (hLiMTs [6]; hLiMTs, ATP, IC50 threshold 100 µM, ref Proctor et al. 2017): -VE
- Bayesian Machine Learning DILI prediction, Williams (2019) ([7]; Bayesian modeling, ref Williams et al. 2019): +VE
- Bayesian Machine Learning ([7]; In vitro Assay, ref Williams 2019): +VE
- Cmax [8]: 2950 nM
- fu [9]: 0.010
- Assigned DILI category ([10]; Chen et al. 2016 or literature alignment, ref Chen et al. 2016): 2
- In vivo DILI ([10]; […]): -VE
- In vivo DILI ([10]; ref Dawson 2012): +VE
- In vivo DILI ([10]; ref Garside 2014): +VE
- in vivo DILI categorisation in the literature ([10]; ref Garside et al. 2014, Proctor et al. 2017, Gustafsson et al. 2014): in vivo DILI positive
- In vivo DILI ([10]; ref Gustafsson 2014): +VE
- In vivo DILI ([10]; ref O'Brien 2006): -VE
- in vivo DILI categorisation in the literature ([10]; ref O'Brien et al. 2006, Xu et al. 2008, Dawson et al. 2012, Persson et al. 2013): non-DILI potential
- In vivo DILI ([10]; ref Persson 2013): -VE
- In vivo DILI ([10]; ref Proctor 2017): +VE
- In vivo DILI ([10]; ref Schadt 2015): +VE
- In vivo DILI ([10]; ref Williams 2019): +VE
- In vivo DILI ([10]; ref Xu 2008): -VE
- THLE-Null [11]: -VE
- THLE-Null/3A4 [11]: -VE
- Cluster 1-6 +VE Assay [12]: +VE
- DILI Score (FDA) (1-8) [13]: 3
- Inhibition of rBsep cutoff<1& cmax u>.2 (rBsep): +VE
- Inhibition of rBsep cutoff<3 (rBsep): +VE
- AC50 (hLiMTs [14]; read-out: ATP endpoint AC50): 106 µM
- minimal effective concentration (hLiMTs [14]; read-out: ATP endpoint MEC): 38.1 µM
- AC50 (hLiMTs [14]; read-out: HCS endpoint AC50): 9.95 µM
- minimal effective concentration (hLiMTs [14]; read-out: HCS endpoint MEC): 5.35 µM
- DILI prediction hLiMTs (HCS-MEC) (hLiMTs [14]; [18]): +VE (MEC < 25 × Cmax.tot cut-off)
- hLiMTs <25x Avg Cmax ATP (hLiMTs [14]; hLiMTs, ATP endpoint, cut-off <25x Avg Cmax): +ve
- hLiMTs <100x Avg Cmaxu ATP (hLiMTs [14]; hLiMTs, ATP endpoint, cut-off <100x Avg Cmaxu): -ve
- hLiMTs <25x Avg Cmax HCS (hLiMTs [14]; hLiMTs, HCS endpoints, cut-off <25x Avg Cmax): +ve
- hLiMTs <100x Avg Cmaxu HCS (hLiMTs [14]; hLiMTs, HCS endpoints, cut-off <100x Avg Cmaxu): -ve
- hLiMTs <25x Avg Cmax All (hLiMTs [14]; hLiMTs, all endpoints (ATP and HCS), cut-off <25x Avg Cmax): +ve
- hLiMTs Cmax max All (hLiMTs [14]; hLiMTs, all endpoints, Cmax max used): +ve
- hLiMTs Cmax min All (hLiMTs [14]; hLiMTs, all endpoints, Cmax min used): +ve
- hLiMTs <10 uM All (hLiMTs [14]; hLiMTs, all endpoints, cut-off <10 uM): +ve (<10 uM)
- hLiMTs <100x Avg Cmaxu All (hLiMTs [14]; hLiMTs, all endpoints, cut-off <100x Avg Cmaxu): -ve
- HepaRG <25x Avg Cmax ATP (HepaRG spheroids; HepaRG, ATP endpoint, cut-off <25x Avg Cmax): +ve
- HepaRG <100x Avg Cmaxu ATP (HepaRG spheroids; HepaRG, ATP endpoint, cut-off <100x Avg Cmaxu): -ve
- HepaRG <25x Avg Cmax HCS (HepaRG spheroids; HepaRG, HCS endpoints, cut-off <25x Avg Cmax): +ve
- HepaRG <100x Avg Cmaxu HCS (HepaRG spheroids; HepaRG, HCS endpoints, cut-off <100x Avg Cmaxu): -ve
- HepaRG <25x Avg Cmax All (HepaRG spheroids; HepaRG, all endpoints (ATP and HCS), cut-off <25x Avg Cmax): +ve
- HepaRG Cmax max All (HepaRG spheroids; HepaRG, all endpoints, Cmax max used): +ve
- HepaRG Cmax min All (HepaRG spheroids; HepaRG, all endpoints, Cmax min used): +ve
- HepaRG <10 uM All (HepaRG spheroids; HepaRG, all endpoints, cut-off <10 uM): -ve
- HepaRG <100x Avg Cmaxu All (HepaRG spheroids; HepaRG, all endpoints, cut-off <100x Avg Cmaxu): -ve
- AC50 (HepaRG spheroids; HepaRG, read-out: ATP endpoint AC50): 67.5 µM
- minimal effective concentration (HepaRG spheroids; HepaRG, read-out: ATP endpoint MEC): 44.7 µM
- AC50 (HepaRG spheroids; HepaRG, read-out: HCS endpoint AC50): 93.7 µM
- minimal effective concentration (HepaRG spheroids; HepaRG, read-out: HCS endpoint MEC): 39.2 µM
- DILI prediction HepaRG spheroids (HCS-MEC) (HepaRG spheroids; [18]): +VE (MEC < 25 × Cmax.tot cut-off)
